The target of test [1] is T1, microtubular protein (tubulin) purified from pig brains (Sus scrofa, UniProt P02550+P02554).
T1 construct: microtubular protein was purified from pig brains via cyclic assembling/disassembling; from tissue; host or cells: pig brain
Briefly: Inhibition of tubulin polymerization (turbidimetry at 340 nm). The format is biochemical. Conditions: pig brain microtubular protein 1 mg/ml, 0.25 mmol GTP, 37° C.
Method: The in-vitro testing of the tubulin polymerization influence was performed as follows:
The buffer system used had the following composition: 20 mmol of PIPES (1,4-piperazine-diethane-sulfonic acid, pKa 6.8), 80 mmol of NaCl, 0.5 mmol of MgCl2, 1 mmol of EGTA (ethylene glycol-bis-(2-aminoethylene)-tetraacetic acid).
For active ingredient testing, protein concentrations of 1 mg/ml (about 10^−5 mmol of tubulin) were used. […] The assembling of microtubuli was carried out in the presence of 0.25 mmol of GTP and heating the samples to 37° C.
The microtubulus formation was examined by means of turbidimetry at a wavelength of 340 nm.
Testing of the active ingredients was carried out by their addition at the beginning of the assembling or in the state of equilibrium. Deviations of turbidity curves from the control characterize its activity. To monitor action and to evaluate the measured turbidity values, a transmission electron microscopic study (CEM 902 A, Zeiss/Oberkochen) of the assemblates was always performed after negative staining with 1% aqueous uranyl acetate.

For test [2], the system named is DU145 human prostate tumor cells. Briefly: Inhibition of cell proliferation, crystal violet staining. Particulars: DU145, 4 days incubation. The format is cell-based. As to the method: (§1) Cell cultures of the following cell lines were prepared in 96-well microtiter plates: • 1. MaTu/ADR multidrug-resistant human breast tumor cells (Epo GmbH Berlin), 5000 cells/well. • 2. HCT116 human colon tumor cells (ATCC CCL-247), 3000 cells/well. • 3. NCl-H460 human non-small-cell lung cancer cells (ATCC HTB-177), 3000 cells/well. • 4. DU145 human prostate tumor cells (ATCC HTB-81), 5000 cells/well. • 5. HMVEC human primary dermal microvascular endothelial cells, 7500 cells/well.
(§2) After 24 hours of incubation in a cell culture incubator at 37° C., the cells of a microtiter plate were stained with crystal violet (reference plate), while the cells in the test plates were incubated for 4 days with the test substances in the concentrations […], as well as with the DMSO solvent by itself (solvent control). The cell proliferation was determined by staining cells with crystal violet. The extinction of the crystal violet was determined by photometry at 595 nm. The percentage of the change in the cell number in the test plates was determined after the extinction values were normalized to the reference plate (0%) and to the solvent control (100%). The semi-maximal inhibition of the cell growth (IC50) was determined as the substance concentration, in which 50% of the cell number of the solvent controls were present.

Test [3] relates to MaTu/ADR multidrug-resistant human breast tumor cells. The test is described as above. The format is cell-based. Particulars: 4 days incubation. The protocol: as §1, §2
Test [4] deals with NCl-H460 human non-small-cell lung cancer cells. The test is described as above. Format: cell-based. Particulars: NCl-H460, 4 days incubation. As to the method:
as §1, §2

In test [5] the test system is HMVEC human primary dermal microvascular endothelial cells. The description is as above. Format: cell-based. Particulars: 4 days incubation. The protocol:
as §1, §2

In test [6] the test system is HCT116 human colon tumor cells. The test is described as above. The format is cell-based. Conditions: HCT116, 4 days incubation. The protocol: as §1, §2

Broadly, the IC50 is the midpoint of a concentration-inhibition curve. Low values mean higher potency, high ones lower potency.

SMILES strings stand for the structures. Some results are limits rather than exact numbers.

T1 sequence (P02550 whole entry): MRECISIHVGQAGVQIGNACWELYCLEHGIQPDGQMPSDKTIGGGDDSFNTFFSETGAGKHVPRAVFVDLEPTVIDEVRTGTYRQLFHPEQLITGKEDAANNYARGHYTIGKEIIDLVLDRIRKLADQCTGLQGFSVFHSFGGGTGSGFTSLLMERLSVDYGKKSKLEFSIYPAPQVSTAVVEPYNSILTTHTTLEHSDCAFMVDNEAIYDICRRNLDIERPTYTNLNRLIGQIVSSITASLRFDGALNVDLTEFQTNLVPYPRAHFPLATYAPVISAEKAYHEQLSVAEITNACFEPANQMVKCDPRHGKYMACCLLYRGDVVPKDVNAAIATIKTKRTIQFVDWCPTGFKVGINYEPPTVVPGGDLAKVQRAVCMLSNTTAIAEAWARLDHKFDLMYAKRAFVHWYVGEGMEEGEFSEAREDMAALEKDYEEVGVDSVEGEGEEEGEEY
T1 sequence (P02554 whole entry): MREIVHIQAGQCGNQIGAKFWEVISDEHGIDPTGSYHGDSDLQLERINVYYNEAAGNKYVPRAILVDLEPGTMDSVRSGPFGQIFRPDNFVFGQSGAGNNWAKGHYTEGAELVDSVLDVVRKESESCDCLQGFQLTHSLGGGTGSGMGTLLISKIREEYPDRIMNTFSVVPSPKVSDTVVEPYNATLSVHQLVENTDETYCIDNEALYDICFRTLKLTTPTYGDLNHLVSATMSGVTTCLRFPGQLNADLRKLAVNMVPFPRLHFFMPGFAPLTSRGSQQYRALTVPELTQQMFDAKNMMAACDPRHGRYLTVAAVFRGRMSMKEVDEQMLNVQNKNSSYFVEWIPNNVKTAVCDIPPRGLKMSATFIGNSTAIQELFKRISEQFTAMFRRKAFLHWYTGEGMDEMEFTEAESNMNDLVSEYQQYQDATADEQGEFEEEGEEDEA

Turning to `COc1cc2c(cc1O)CC[C@@H]1[C@@H]2CC[C@]2(C)[C@@H](O)CC[C@@H]12` [2-Methoxyestradiol, reference compound], the half-inhibitory concentration (IC50) was found to be 2700 nM in test [1]; 1900 nM in test [2]; 200 nM in test [3]; 1800 nM in test [4]; 2200 nM in test [5]; 1100 nM in test [6].

Regarding `COc1cc2c(cc1OS(N)(=O)=O)CC[C@@H]1[C@@H]2CC[C@]2(C)CCC[C@@H]12` [(1), 2-Methoxy-estra-1,3,5(10)-trien-3-yl Sulfamate], the IC50 in test [1] was 670 nM; in test [2] (Homo sapiens, DU-145, 96 h), 500 nM; in test [3] (Homo sapiens, 96 h), 110 nM; in test [4] (Homo sapiens, 96 h), 400 nM; in test [5] (Homo sapiens, 96 h), under 100 nM; in test [6] (Homo sapiens, HCT-116, 96 h) it was 400 nM.

`CCc1cc2c(cc1OS(N)(=O)=O)CC[C@@H]1[C@@H]2CC[C@]2(C)[C@@H](OC)CC[C@@H]12` [(3), 2-Ethyl-17β-methoxy-estra-1,3,5(10)-trien-3-yl sulfamate]: the IC50 in test [1] amounted to 1400 nM; in test [2] (Homo sapiens, DU-145, 96 h) it was 180 nM; in test [3] (Homo sapiens, 96 h) it was 120 nM; in test [4] (Homo sapiens, 96 h), 180 nM; in test [5] (Homo sapiens, 96 h) it was 160 nM; in test [6] (Homo sapiens, HCT-116, 96 h) it was 180 nM.

Take `C=C1CC[C@H]2[C@@H]3CCc4cc(OS(N)(=O)=O)c(OC)cc4[C@H]3CC[C@]12C` [(4), 2-Methoxy-17(20)-methylene-estra-1,3,5(10)-trien-3-yl Sulfamate]: the concentration for half-maximal inhibition (IC50) in test [1] is 1400 nM; in test [2] (Homo sapiens, DU-145, 96 h), 180 nM; in test [3] (Homo sapiens, 96 h), under 100 nM; in test [4] (Homo sapiens, 96 h), 180 nM; in test [5] (Homo sapiens, 96 h) it was 160 nM; in test [6] (Homo sapiens, HCT-116, 96 h), 180 nM.

In the case of `COc1cc2c(cc1OS(N)(=O)=O)CC[C@@H]1[C@@H]2CC[C@]2(C)[C@@H](C)CC[C@@H]12` [(5), 2-methoxy-17β-methyl-estra-1,3,5(10)-trien-3-yl sulfamate], the IC50 in test [1] is 1300 nM.

As to `C=C1CC[C@H]2[C@@H]3CC(=NO)c4cc(OS(N)(=O)=O)c(OC)cc4[C@H]3CC[C@]12C` [(7), 2-Methoxy-17(20)-methylene-6-oximino-estra-1,3,5(10)-trien-3-yl Sulfamate], the IC50 was 550 nM in test [2]; 130 nM in test [3]; 500 nM in test [4]; 130 nM in test [5]; 500 nM in test [6].

For the molecule `COc1cc2c(cc1OS(N)(=O)=O)CC[C@@H]1[C@@H]2CC[C@]2(C)C(=C(F)F)CC[C@@H]12` [(8), 17(20)-Difluoromethylene-2-methoxy-estra-1,3,5(10)-trien-3-yl Sulfamate], the IC50 came out at 1100 nM in test [1]; 500 nM in test [2] (Homo sapiens, DU-145, 96 h); 170 nM in test [3] (Homo sapiens, 96 h); 220 nM in test [4] (Homo sapiens, 96 h); 200 nM in test [5] (Homo sapiens, 96 h); 300 nM in test [6] (Homo sapiens, HCT-116, 96 h).

Take `COc1cc2c(cc1OS(N)(=O)=O)CC[C@@H]1[C@@H]2CC[C@]2(C)[C@@H](C(F)F)CC[C@@H]12` [(9), 17β-Difluoromethyl-2-methoxy-estra-1,3,5(10)-trien-3-yl Sulfamate]: the IC50 in test [1] came to 1500 nM; in test [2] (Homo sapiens, DU-145, 96 h) it was 400 nM; in test [3] (Homo sapiens, 96 h), 110 nM; in test [4] (Homo sapiens, 96 h), 220 nM; in test [5] (Homo sapiens, 96 h), 200 nM; in test [6] (Homo sapiens, HCT-116, 96 h), 300 nM.

Turning to `COc1cc2c(cc1OS(N)(=O)=O)CC[C@@H]1[C@@H]2CC[C@]2(C)[C@@H](CO)CC[C@@H]12` [(11), 17β-Hydroxymethyl-2-methoxy-estra-1,3,5(10)-trien-3-yl Sulfamate], the IC50 in test [2] (Homo sapiens, DU-145, 96 h) is 200 nM; in test [3] (Homo sapiens, 96 h), under 100 nM; in test [4] (Homo sapiens, 96 h), 180 nM; in test [5] (Homo sapiens, 96 h) it was under 100 nM; in test [6] (Homo sapiens, HCT-116, 96 h) it was 180 nM.

Take `CC(=O)O[C@H]1C(=O)[C@@]2(C)[C@H]([C@H](OC(=O)c3ccccc3)[C@]3(O)C[C@H](OC(=O)[C@H](O)[C@@H](NC(=O)c4ccccc4)c4ccccc4)C(C)=C1C3(C)C)[C@]1(OC(C)=O)CO[C@@H]1C[C@@H]2O` [Taxol, reference compound]: the 50% inhibitory concentration (IC50) came out at 4 nM in test [2] (Homo sapiens, DU-145, 96 h); 400 nM in test [3] (Homo sapiens, 96 h); 4 nM in test [4] (Homo sapiens, 96 h); 4 nM in test [5] (Homo sapiens, 96 h); 4 nM in test [6] (Homo sapiens, HCT-116, 96 h).
